# In PMC10762035, “Molecular basis of human trace amine-associated receptor 1 activation” (Nature Communications, 2024):
# Positions count from the first letter of the chain named. Values joined by “and” are separate entries in the source; they are usually repeats but may differ in a detail not shown here. Identical values can stand only once.
# Legend:
# Type in all cases: cell-based
# hTA1 S107C = target: T1, hTA1 S107C (Homo sapiens, UniProt Q96RJ0, S107C); experiment: GloSensor cAMP accumulation assay, S107C mutant;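 note: cells transiently co-expressing receptor and GloSensor biosensor, luminescence read after 30 min agonist exposure at room temperature, concentration-response fitted by nonlinear regression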
# T1 construct: expressed in transfected cells; host or cells: HEK293T
# T1 sequence (Q96RJ0 1-339 S107C): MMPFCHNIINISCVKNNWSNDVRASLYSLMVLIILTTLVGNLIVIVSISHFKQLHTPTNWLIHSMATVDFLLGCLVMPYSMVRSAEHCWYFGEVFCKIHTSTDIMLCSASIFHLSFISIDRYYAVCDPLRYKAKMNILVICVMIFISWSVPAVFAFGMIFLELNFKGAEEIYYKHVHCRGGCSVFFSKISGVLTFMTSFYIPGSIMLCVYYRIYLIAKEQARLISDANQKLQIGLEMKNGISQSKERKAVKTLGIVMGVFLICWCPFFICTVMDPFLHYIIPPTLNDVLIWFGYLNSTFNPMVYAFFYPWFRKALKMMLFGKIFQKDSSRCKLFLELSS
# hTA1 C178S = target: T2, hTA1 C178S (Homo sapiens, UniProt Q96RJ0, C178S); experiment: GloSensor cAMP accumulation assay, C178S mutant; details: for C178S - Normalized Luminescence Counts (N=2): log[Compound], single replicates
# T2 construct: expressed in transfected cells; host or cells: HEK293T
# T2 sequence (Q96RJ0 1-339 C178S): T1 sequence (Q96RJ0 1-339 S107C) with C107S, C178S
# hTA1 W264F = target: T3, hTA1 W264F (Homo sapiens, UniProt Q96RJ0, W264F); experiment: GloSensor cAMP accumulation assay, W264F mutant;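 note: cells transiently transfected with receptor plus GloSensor, luminescence read 30 min after agonist addition at room temperature, concentration-response curves fitted by log(agonist) vs response regression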
# T3 construct: expressed in transfected cells; host or cells: HEK293T
# T3 sequence (Q96RJ0 1-339 W264F): T1 sequence (Q96RJ0 1-339 S107C) with C107S, W264F
# hTA1 I290N = target: T4, hTA1 I290N (Homo sapiens, UniProt Q96RJ0, I290N); experiment: GloSensor cAMP accumulation assay, I290N mutant;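 note: cells transiently co-expressing hTA1 and the GloSensor cAMP biosensor, luminescence read 30 min after compound addition at room temperature, efficacy scaled to the maximal β-PEA response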
# T4 construct: expressed in transfected cells; host or cells: HEK293T
# T4 sequence (Q96RJ0 1-339 I290N): T1 sequence (Q96RJ0 1-339 S107C) with C107S, I290N
# hTA1 C96S = target: T5, hTA1 C96S (Homo sapiens, UniProt Q96RJ0, C96S); experiment: GloSensor cAMP accumulation assay, C96S mutant; details: log[Compound]
# T5 construct: expressed in transfected cells; host or cells: HEK293T
# T5 sequence (Q96RJ0 1-339 C96S): T1 sequence (Q96RJ0 1-339 S107C) with C96S, C107S
# [1] = C178S, each row one experiment (N=2), 3 replicates
smiles,measurement,setting,value
Cc1c(F)cccc1[C@H]1COC(N)=N1 [Ro5263397],decrease in potency vs wild type,hTA1 S107C; S107C,approximately 100 fold
same,ΔEmax values (each mutant value - WT average),hTA1 S107C; S107C mutant minus WT average,21.9095
same,"pEC50 values, Mean","hTA1 S107C; S107C mutant, each line an independent experiment, 3 replicates",7.847 and 7.402
same,"Emax values, Mean","hTA1 S107C; S107C mutant, β-PEA = 100, each line an independent experiment, 3 replicates",108.613 and 99.8921
same,Span ± SEM (Emax normalized to β-PEA),"hTA1 S107C; S107C, n=2",112.19
same,pEC50 ± SEM,"hTA1 S107C; S107C, n=2",6.61 ± 0.80
same,EC50,"hTA1 S107C; S107C, n=2, read-out: EC50",248 nM
same,"pEC50 values, Mean",hTA1 C178S; [1],8.162 and 8.579
same,"ΔpEC50 values (each mutant value - WT average), Mean",hTA1 C178S; [1],-0.6693 and -0.2522
same,Span ± SEM (Emax normalized to β-PEA),"hTA1 C178S; C178S, n=2",105.17
same,pEC50 ± SEM,"hTA1 C178S; C178S, n=2",8.37 ± 0.09
same,EC50,"hTA1 C178S; C178S, n=2, read-out: EC50",4.26 nM
same,Emax,"hTA1 C178S; C178S, relative to β-PEA",105.2%
same,"Emax values, Mean","hTA1 C178S; C178S, β-PEA = 100, each row one experiment (N=2), 3 replicates",92.0056 and 118.332
same,C178S - Normalized Luminescence Counts (N=2),hTA1 C178S; M = -5,116.512 and 98.9884 and 102.82 and 110.453 and 111.171 and 57.8292
same,C178S - Normalized Luminescence Counts (N=2),hTA1 C178S; M = -5.522,90.6706 and 92.2127 and 73.4274 and 137.917 and 164.274 and 131.185
same,C178S - Normalized Luminescence Counts (N=2),hTA1 C178S; M = -6,100.344 and 93.0071 and 81.792 and 122.18 and 154.88 and 155.328
same,C178S - Normalized Luminescence Counts (N=2),hTA1 C178S; M = -6.522,92.3996 and 91.979 and 98.7081 and 121.313 and 114.761 and 110.333
same,C178S - Normalized Luminescence Counts (N=2),hTA1 C178S; M = -7,78.9882 and 76.0443 and 77.119 and 120.565 and 138.096 and 118.74
same,C178S - Normalized Luminescence Counts (N=2),hTA1 C178S; M = -7.522,86.6519 and 72.9134 and 81.9322 and 98.8752 and 109.017 and 95.5544
same,C178S - Normalized Luminescence Counts (N=2),hTA1 C178S; M = -8,48.9411 and 58.2403 and 50.0626 and 103.512 and 85.5323 and 112.428
same,C178S - Normalized Luminescence Counts (N=2),hTA1 C178S; M = -8.522,29.268 and 30.1559 and 35.3428 and 67.4924 and 67.6121 and 48.0464
same,C178S - Normalized Luminescence Counts (N=2),hTA1 C178S; M = -9,15.623 and 14.3146 and 15.5763 and 45.7428 and 46.9395 and 50.4398
same,C178S - Normalized Luminescence Counts (N=2),hTA1 C178S; M = -9.522,4.128 and 7.025 and 6.23 and 17.8303 and 18.7278 and 23.3949
same,C178S - Normalized Luminescence Counts (N=2),hTA1 C178S; M = -10,3.707 (2×) and 2.258 and 5.325 and 8.915 and 9.424
same,C178S - Normalized Luminescence Counts (N=2),hTA1 C178S; M = -10.522,1.885 and 0.4359 and 0.8097 and 2.513 and 2.752 and 5.684
same,C178S - Normalized Luminescence Counts (N=2),hTA1 C178S; M = -11,0.4826 and 1.043 and -0.5921 and 4.667 and 6.223 and 4.577
same,C178S - Normalized Luminescence Counts (N=2),hTA1 C178S; M = -11.522,0.9967 and 0.3892 and 0.01533 and 3.919 and 5.445 and 4.457
same,C178S - Normalized Luminescence Counts (N=2),hTA1 C178S; M = -12,2.258 and 1.511 (2×) and 2.7223 and 4.936 and 4.158
same,C178S - Normalized Luminescence Counts (N=2),hTA1 C178S; M = -12.522,0.1555 and 0.7163 and 0.9032 and 5.3849 and 3.7993 and 4.607
same,ΔEmax values (each mutant value - WT average),hTA1 W264F; W246F mutant (so in the source) minus WT average,-34.1318
same,"pEC50 values, Mean","hTA1 W264F; W246F mutant (so in the source), each line an independent experiment, 3 replicates",5.605 and 5.96
same,"Emax values, Mean","hTA1 W264F; W246F mutant (so in the source), β-PEA = 100, each line an independent experiment, 3 replicates",52.5716 and 62.1592
same,decrease in potency vs wild type,hTA1 W264F; W264F,more than 1000 fold
same,Span ± SEM (Emax normalized to β-PEA),"hTA1 W264F; W264F, n=2",57.37 ± 4.79
same,pEC50 ± SEM,"hTA1 W264F; W264F, n=2",5.78 ± 0.06
same,Span ± SEM (Emax normalized to β-PEA),"hTA1 I290N; I290N, n=2",83.69 ± 1.69
same,pEC50 ± SEM,"hTA1 I290N; I290N, n=2",8.33 ± 0.07
same,EC50,"hTA1 I290N; I290N, n=2, read-out: EC50",4.63 nM
same,"cAMP accumulation response, single replicate values (source data, Supplementary Figure 5)","hTA1 I290N; hTA1 I290N (N=2), log[Compound], M = -5",101.804 and 110.08 and 95.4137 and 103.531
same,"ΔpEC50 values (each mutant value - WT average), Mean",hTA1 I290N; hTA1 I290N mutant minus WT average,-0.535 and -0.459
same,"pEC50 values, Mean","hTA1 I290N; hTA1 I290N mutant, Figure 3B source data, each grid row a separate experiment, 3 replicates",8.296 and 8.372
same,"Emax values, Mean","hTA1 I290N; hTA1 I290N mutant, β-PEA set to 100, each grid row a separate experiment, 3 replicates",85.3822 and 81.9937
same,Normalized Luminescence Counts,"hTA1 C96S; C96S, M = -5, single replicates (N=2)",9.313 (2×) and 10.6308 and 10.8582 and 5.048 and -2.698
same,Normalized Luminescence Counts,"hTA1 C96S; C96S, M = -5.522, single replicates (N=2)",2.723 and 6.018 and 1.4045 and 10.8582 and 101.879 and 20.5413
same,Normalized Luminescence Counts,"hTA1 C96S; C96S, M = -6, single replicates (N=2)",1.4045 (2×) and 2.064 and 3.112 and 14.7315 and -4.6346
same,Normalized Luminescence Counts,"hTA1 C96S; C96S, M = -6.522, single replicates (N=2)",-1.891 (2×) and 0.08646 and -2.698 (2×) and -0.7614
same,Normalized Luminescence Counts,"hTA1 C96S; C96S, M = -7, single replicates (N=2)",-0.5726 and 2.723 and -2.55 and 37.9707 and -8.508 and -4.6346
same,Normalized Luminescence Counts,"hTA1 C96S; C96S, M = -7.522, single replicates (N=2)",2.064 and 1.4045 and -1.232 and -2.698 and 12.7948 and -14.3176
same,Normalized Luminescence Counts,"hTA1 C96S; C96S, M = -8, single replicates (N=2)",-0.5726 and 0.08646 and -1.891 and 14.7315 (3×)
same,Normalized Luminescence Counts,"hTA1 C96S; C96S, M = -8.522, single replicates (N=2)",0.08646 and 2.064 and -1.232 and 22.4779 and 6.985 (2×)
same,Normalized Luminescence Counts,"hTA1 C96S; C96S, M = -9, single replicates (N=2)",-3.868 and 0.08646 and -3.209 and 10.8582 (3×)
same,Normalized Luminescence Counts,"hTA1 C96S; C96S, M = -9.522, single replicates (N=2)",-3.209 and 0.08646 and -5.186 and 1.175 and 3.112 (2×)
same,Normalized Luminescence Counts,"hTA1 C96S; C96S, M = -10, single replicates (N=2)",-3.209 and 0.08646 and -0.5726 and 28.2877 and 5.048 and 61.21
same,Normalized Luminescence Counts,"hTA1 C96S; C96S, M = -10.522, single replicates (N=2)",-2.55 and -0.5726 and -3.868 and -0.7614 (2×) and 1.175
same,Normalized Luminescence Counts,"hTA1 C96S; C96S, M = -11, single replicates (N=2)",0.7455 (2×) and 4.041 and 47.6538 and 53.4636 and 12.7948
same,Normalized Luminescence Counts,"hTA1 C96S; C96S, M = -11.522, single replicates (N=2)",2.064 and 4.7 and 0.08646 and 8.922
same,Normalized Luminescence Counts,"hTA1 C96S; M = -11.522, single replicates, mutant block above C178S",1.347 and 1.551 and 1.574 and 1.444 and 1.07 and 0.4821
same,Normalized Luminescence Counts,"hTA1 C96S; M = -12, single replicates, mutant block above C178S",2.211 and 3.099 and 1.62 and 0.7492 and 1.283 and 0.5889
same,Normalized Luminescence Counts,"hTA1 C96S; M = -12.522, single replicates, mutant block above C178S",0.07201 and 0.2541 and -0.1784 and 1.444 and 0.7492 and -0.5864
